Results reported in patent US20140120595A1 (priority 2008, published 2014).
In brackets after ≈: the same amount, converted by molar mass.

Test system: E. coli K12
Experiment: microbe, parasite or virus in culture
Conditions: Escherichia coli, K12, 24 h, read-out: minimum inhibitory concentration (MIC)
Description: Overnight cultures of E. coli K12 were started in 5 mL LB containing no antibiotic 12-16 hours before the experiment was performed. LB broth was inoculated using aseptic technique. The culture was incubated overnight in a shaking incubator at 37 C.
The next morning 10 mL of M9 was inoculated with 100 μL of cells from the overnight culture. The tube was inverted to mix the cells prior to incubation at 37 C in the shaking incubator. While the cells were growing 96 well plates were prepared for inoculation.
A solution of concentrated M9 was made by combining 4 mL of 5×M9 salts, 40 μL of 20% glucose, 40 μL 1M MgSO4, and 2 μL of 1M CaCl2.
The plate was loaded as follows: 45 μL of concentrated M9 mixture was added to each well containing the compound concentrations and the following dilutions were performed:
Controls were prepared and loaded onto the plate as follows: 135 μL of H2O was added to positive control wells. 45 μL of the concentrated M9 mixture was added to each positive control well. 200 μL of water was added to each negative control well.
The OD600 of the cells from the overnight culture that was inoculated into M9 was checked using the spectrophotometer. The final OD600 of the cells was between 0.195 and 0.200. To achieve a final OD within this range the spectrophotometer was blanked with water. […]

OCCCCO [1,4-BDO, 1,4-butanediol]
MIC: 50 mg/mL (≈ 555 mM)
